# Laboratory results: patent publication US12427210B2, “Compounds comprising a fibroblast activation protein ligand and use thereof” (priority 2019, dated 2025)
# Numbered stars: 1 amine (or outer) side, 2 acyl side, 3 side chain; on linkers, the order of the positions; unused ones are H or OH. Bridge positions count the residues as written; N and C are the ends. Peptide text beside a SMILES is read from it. * marks the point of attachment. X5 = O=C1CN2CCN3CCN(CC(=O)N4CCN(Cc5cc(C[*:1])cc(C[*:2])c5)CC4)CCN(CC2)CC(=O)[O][Eu]([O]1)[O]C(=O)C3; Hexanoyl = CCCCCC(=O)*
# Tests used:
# FAP [1] = biological target: T1, FAP (Homo sapiens, UniProt Q12884); experiment: biochemical
# [2] = biological target: FAP-expressing human WI-38 fibroblasts (Homo sapiens, UniProt Q12884); experiment: cell-based
# Renin = biological target: T2, Renin (Homo sapiens, UniProt P00797); experiment: biochemical; details: read-out: Percentage inhibition (%), Reference
# T2 sequence (P00797 67-406): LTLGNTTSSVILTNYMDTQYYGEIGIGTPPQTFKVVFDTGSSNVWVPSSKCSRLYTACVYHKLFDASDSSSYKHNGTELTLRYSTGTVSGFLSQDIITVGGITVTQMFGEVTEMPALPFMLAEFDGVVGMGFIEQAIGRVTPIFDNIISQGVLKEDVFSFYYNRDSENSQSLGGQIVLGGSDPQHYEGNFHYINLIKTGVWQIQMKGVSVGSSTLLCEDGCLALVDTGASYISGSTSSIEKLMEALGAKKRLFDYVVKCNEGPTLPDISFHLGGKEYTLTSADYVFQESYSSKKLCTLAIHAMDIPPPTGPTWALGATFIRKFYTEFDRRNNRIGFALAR
# Caspase-3 = biological target: T3, Caspase-3 (Homo sapiens, UniProt P42574); details: 100 nM
# T3 sequence (P42574 29-175 limits assumed): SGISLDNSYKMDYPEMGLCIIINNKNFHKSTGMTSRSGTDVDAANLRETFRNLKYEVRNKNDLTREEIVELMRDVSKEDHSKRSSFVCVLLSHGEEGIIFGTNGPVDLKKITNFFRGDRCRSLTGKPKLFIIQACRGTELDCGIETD
# T3 sequence (P42574 176-277 limits assumed): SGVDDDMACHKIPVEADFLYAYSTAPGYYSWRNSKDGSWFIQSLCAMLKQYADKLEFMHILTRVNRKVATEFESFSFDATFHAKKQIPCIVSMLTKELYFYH
# Caspase-7 = biological target: T4, Caspase-7 (Homo sapiens, UniProt P55210); details: 1 μM
# T4 sequence (P55210 24-198 limits assumed): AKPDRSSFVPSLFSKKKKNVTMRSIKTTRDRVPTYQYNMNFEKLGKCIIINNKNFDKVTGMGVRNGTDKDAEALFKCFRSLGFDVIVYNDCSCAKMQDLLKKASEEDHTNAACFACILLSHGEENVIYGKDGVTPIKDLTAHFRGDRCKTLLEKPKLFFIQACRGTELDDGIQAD
# T4 sequence (P55210 207-303 limits assumed): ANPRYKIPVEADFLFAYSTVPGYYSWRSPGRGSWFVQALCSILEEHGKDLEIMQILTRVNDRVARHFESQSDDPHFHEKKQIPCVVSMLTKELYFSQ
# HEK-FAP tumors = experiment: Efficacy study HEK-FAP
# Sarc4809 PDX tumors = experiment: Efficacy study sarcoma Sarc4809 PDX model
# Cathepsin F = biological target: T5, Cathepsin F (Homo sapiens, UniProt Q9UBX1); details: 1 μM
# T5 sequence (Q9UBX1 271-484): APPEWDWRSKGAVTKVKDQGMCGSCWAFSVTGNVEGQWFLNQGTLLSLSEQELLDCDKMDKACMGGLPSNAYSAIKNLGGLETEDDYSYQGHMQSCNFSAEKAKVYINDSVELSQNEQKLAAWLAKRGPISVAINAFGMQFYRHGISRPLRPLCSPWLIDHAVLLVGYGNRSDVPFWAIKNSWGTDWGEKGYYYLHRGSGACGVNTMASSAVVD
# NMDA = details: read-out: Ki Ref; reference compound
# alpha 1A (h) = biological target: T6, alpha 1A (h) (Homo sapiens, UniProt P35348); details: read-out: Ki Ref; reference compound
# T6 sequence (P35348 1-466): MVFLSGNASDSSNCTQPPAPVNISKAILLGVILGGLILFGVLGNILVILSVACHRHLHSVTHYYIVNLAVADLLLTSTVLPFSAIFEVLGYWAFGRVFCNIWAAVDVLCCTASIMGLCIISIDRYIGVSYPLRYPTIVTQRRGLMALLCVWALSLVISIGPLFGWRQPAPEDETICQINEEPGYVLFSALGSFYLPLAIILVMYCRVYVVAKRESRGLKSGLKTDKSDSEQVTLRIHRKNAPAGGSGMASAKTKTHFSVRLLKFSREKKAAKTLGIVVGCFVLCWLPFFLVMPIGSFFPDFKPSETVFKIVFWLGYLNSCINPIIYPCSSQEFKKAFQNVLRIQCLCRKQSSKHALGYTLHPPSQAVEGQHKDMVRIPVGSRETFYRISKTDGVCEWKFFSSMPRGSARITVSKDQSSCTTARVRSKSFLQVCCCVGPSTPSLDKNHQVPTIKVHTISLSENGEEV
# Activated Protein C = Activated Protein C (Homo sapiens, UniProt P04070); experiment: biochemical; details: read-out: Percentage inhibition (%), Reference
# 5-HT2B (h) = 5-HT2B (h) (Homo sapiens, UniProt P41595); details: read-out: Ki Ref; reference compound
# in vitro [3] = details: mouse, plasma
# in vitro [4] = details: human, plasma
# in vitro [5] = details: rat, plasma
# FAP [6] = biological target: T1, FAP; experiment: biochemical; remark: listed apart in the source
# Cathepsin B = Cathepsin B (Homo sapiens, UniProt P07858); details: 100 nM
# Cathepsin V = Cathepsin V (Homo sapiens, UniProt O60911); details: 100 nM
# Cathepsin S = Cathepsin S (Homo sapiens, UniProt P25774); details: 100 nM
# Cathepsin L = Cathepsin L (Homo sapiens, UniProt P07711); details: 1 μM
# KV channel = details: read-out: Ki Ref; reference compound
# [7] = throughout the study, all groups
compound,measurement,setting,value
"CCCCCC(=O)N[C@H]1CSCc2cc(cc(CN3CCN(C(=O)CN4CCN5CCN6CCN(CC4)CC(=O)[O][Eu]([O]C(=O)C6)[O]C(=O)C5)CC3)c2)CSC[C@@H](C(=O)N[C@@H](CC(=O)O)C(N)=O)NC(=O)[C@H](Cc2ccccc2)NC(=O)[C@H](CCC(N)=O)NC(=O)[C@H]([C@@H](C)O)NC(=O)[C@@H]2CCCN2C(=O)[C@@H]2CCCN2C1=O [Compound 3BP-3661, Hex-[Cys(tMeBn(EuDOTA-PP))-Pro-Pro-Thr-Gln-Phe-Cys]-Asp-NH2] (Hexanoyl-CPPTQFCD-NH2; linker 1-7 via X5)",IC50,FAP [1],< 10 nM
same,IC50,[2],< 10 nM
"COCCCOc1cc(C[C@@H](C[C@H](N)[C@@H](O)C[C@H](C(=O)NCC(C)(C)C(N)=O)C(C)C)C(C)C)ccc1OC [Aliskiren, reference compound]",inhibition at 0.03 µM,Renin,99%
COC[C@@H]1CCCN1S(=O)(=O)c1ccc2c(c1)C(=O)C(=O)N2 [Caspase 3/7 Inhibitor I],"Percentage inhibition (%), Reference",Caspase-3,89%
same,"Percentage inhibition (%), Reference",Caspase-7,92%
"CCCCCC(=O)N[C@H]1CSCc2cc(CSCCNC(=O)CN3CCN(CC(=O)O)CCN(CC(=O)O)CCN(CC(=O)O)CC3)cc(c2)CSC[C@@H](C(=O)O)NC(=O)[C@H](Cc2ccccc2)NC(=O)[C@H](CCC(N)=O)NC(=O)[C@H]([C@@H](C)O)NC(=O)[C@@H]2CCCN2C(=O)[C@@H]2CCCN2C1=O [^177Lu-3BP-3554, metal not drawn]",body weight loss,HEK-FAP tumors; [7],No treatment-related body weight loss
same,body weight loss (BWL),Sarc4809 PDX tumors; [7],No treatment-related body weight loss
Cystatin C,"Percentage inhibition (%), Reference",Cathepsin F,74%
CCCCCC(=O)N[C@H]1CSCc2cc(CSCCNC(=O)CN3CCN4CCN5CCN(CC3)CC(=O)[O][Lu]([O]C(=O)C4)[O]C(=O)C5)cc(c2)CSC[C@@H](C(=O)O)NC(=O)[C@H](Cc2ccccc2)NC(=O)[C@H](CCC(N)=O)NC(=O)[C@H]([C@@H](C)O)NC(=O)[C@@H]2CCCN2C(=O)[C@@H]2CCCN2C1=O [^natLu-3BP-3554],mean tumor volume (MTV),"HEK-FAP tumors; cold compound, single i.v. injection Day 0, day 14",1392±420 mm^3
same,MTV,"Sarc4809 PDX tumors; cold compound (control group), day 31",1225±775 mm^3
"CCCCCC(=O)N[C@H]1CSCc2cc(CSCCNC(=O)CN3CCN4CCN5CCN(CC3)CC(=O)[O][Eu]([O]C(=O)C4)[O]C(=O)C5)cc(c2)CSC[C@@H](C(=O)O)NC(=O)[C@H](Cc2ccccc2)NC(=O)[C@H](CCC(N)=O)NC(=O)[C@H]([C@@H](C)O)NC(=O)[C@@H]2CCCN2C(=O)[C@@H]2CCCN2C1=O [Compound 3BP-3662, Hex-[Cys(tMeBn(EuDOTA-AET))-Pro-Pro-Thr-Gln-Phe-Cys]-OH]",IC50,FAP [1],< 10 nM
same,IC50,[2],< 10 nM
"O=C(O)[C@@H]1C[C@H](CP(=O)(O)O)CCN1 [CGS 19755, reference compound]",Ki,NMDA,140 nM
COc1cccc(OC)c1OCCNCC1COc2ccccc2O1 (stereo not shown) [WB 4101],Ki,alpha 1A (h),0.24 nM
"[H]/N=C(/N)c1ccc(NCc2nc3cc(C(=O)N(CCC(=O)O)c4ccccn4)ccc3n2C)cc1 [Dabigatran, reference compound]",inhibition at 20 µM,Activated Protein C,74%
"CCCCCC(=O)N[C@H]1CSCc2cc(CSCCNC(=O)CN3CCN4CCN(CC(=O)O)CCN(CC3)CC(=O)[O][Cu][O]C(=O)C4)cc(c2)CSC[C@@H](C(=O)O)NC(=O)[C@H](Cc2ccccc2)NC(=O)[C@H](CCC(N)=O)NC(=O)[C@H]([C@@H](C)O)NC(=O)[C@@H]2CCCN2C(=O)[C@@H]2CCCN2C1=O [Compound 3BP-4293, Hex-[Cys-(tMeBn(CuDOTA-AET))-Pro-Pro-Thr-Gln-Phe-Cys]-OH]",IC50,FAP [1],< 10 nM
same,IC50,[2],< 10 nM
COc1cc(CC(C)N)c(OC)cc1I (racemic) [(±)DOI],Ki,5-HT2B (h),4.2 nM
"CCCCCC(=O)N[C@H]1CSCc2cc(CSCCNC(=O)CN3CCN4CCN5CCN(CC3)CC(=O)[O][Lu]([O]C(=O)C4)[O]C(=O)C5)cc(c2)CSC[C@@H](C(=O)O)NC(=O)[C@H](Cc2ccccc2)NC(=O)[C@H](CCC(N)=O)NC(=O)[C@H]([C@@H](C)O)NC(=O)[C@@H]2CCCN2C(=O)[C@@H]2CCCN2C1=O [Compound 3BP-3624, Hex-[Cys(tMeBn(LuDOTA-AET))-Pro-Pro-Thr-Gln-Phe-Cys]-OH]","remaining at 24 h, 9.8 µM",in vitro [3],100%
same,IC50,FAP [1],< 10 nM
same,"remaining at 24 h, 9.8 µM",in vitro [4],100%
same,"remaining at 24 h, 9.8 µM",in vitro [5],100%
same,IC50,[2],< 10 nM
same,Kd,FAP [6],< 10 nM
"CCCCCC(=O)N[C@H]1CSCc2cc(CSCCNC(=O)CN3CCN4CCN5CCN(CC3)CC(=O)[O][Ga]([O]C(=O)C4)[O]C(=O)C5)cc(c2)CSC[C@@H](C(=O)O)NC(=O)[C@H](Cc2ccccc2)NC(=O)[C@H](CCC(N)=O)NC(=O)[C@H]([C@@H](C)O)NC(=O)[C@@H]2CCCN2C(=O)[C@@H]2CCCN2C1=O [Compound 3BP-3949, Hex-[Cys(tMeBn(GaDOTA-AET))-Pro-Pro-Thr-Gln-Phe-Cys]-OH]",IC50,FAP [1],< 10 nM
same,IC50,[2],< 10 nM
same,Kd,FAP [6],< 10 nM
"CCCCCC(=O)N[C@H]1CSCc2cc(CSCCNC(=O)CN3CCN4CCN(CC(=O)O)CCN(CC3)CC(=O)[O][Zn][O]C(=O)C4)cc(c2)CSC[C@@H](C(=O)O)NC(=O)[C@H](Cc2ccccc2)NC(=O)[C@H](CCC(N)=O)NC(=O)[C@H]([C@@H](C)O)NC(=O)[C@@H]2CCCN2C(=O)[C@@H]2CCCN2C1=O [Compound 3BP-4343, Hex-[Cys-(tMeBn(ZnDOTA-AET))-Pro-Pro-Thr-Gln-Phe-Cys]-OH]",IC50,FAP [1],< 10 nM
same,IC50,[2],< 10 nM
"CC(C)C[C@H](NC(=O)[C@H]1O[C@@H]1C(=O)O)C(=O)NCCCCN=C(N)N [Compound E-64, E-64]","Percentage inhibition (%), Reference",Cathepsin B,97%
same,"Percentage inhibition (%), Reference",Cathepsin V,83%
same,"Percentage inhibition (%), Reference",Cathepsin S,91%
same,"Percentage inhibition (%), Reference",Cathepsin L,97%
alpha-dendrotoxin [reference compound],Ki,KV channel,0.097 nM
